Laboratory results published in patent publication US20200345846A1, “CORROLE COMPOSITIONS” (TECHNION RESEARCH & DEVELOPMENT FOUNDATION LIMITED, priority 2017, published 2020).

Tested on: DU-145 prostate cancer cell line
Test: FACS analysis with annexin V-FITC kit (apoptosis)
Type: cell-based, human
Conditions: analysis after 4 h
Method: Cells (DU-145) were seeded in 6-well microtiter plates (5×10^4 cells/mL; 3 mL per well) 24 h before the addition of assigned compounds/albumin particles. At the time of drug treatment, stock solutions of compounds were diluted to 10-fold the desired final test concentrations with EMEM medium. Aliquots of 300 μL of these diluted solutions were added to the appropriate microtiter wells containing 2700 μL of medium, resulting in the required final drug concentrations (according to assigned concentration). The final concentration of DMSO (given that the compound required DMSO for solvation) in test culture was <1%. […] Following 24-72 h of exposure at 37° C., cells were re-suspended with trypsin into PBS pH 7.2 and pelleted at 3000 rpm for 5 min. Samples were washed under PBS×3 times. Samples were taken for measurement using a BD LSR-II Analyzer supported with BD FACSDiVa™ Software Version 6.1 for data analysis. Corrole fluorescence was measured using appropriate filters for excitation (405 nm, DAPI) and emission (Ds-RED). FIGS. 15A-F present FACS analysis of DU-145 prostate cancer cell line treated with an annexin V-FITC kit after 4 h incubation with: HSA control; FIGS. 15B-F present 5-Ga HSA NP's 2, 5, 10, 15, 20 μM respectively. […] Analysis of β-lapachone was done after 4 h since it induces apoptosis faster.

CC1(C)CCC2=C(O1)c1ccccc1C(=O)C2=O [Corrole 0-lapachone, β-lapachone]
shift of annexin V-FITC distribution curve: strong shift of the distribution curve towards stronger mean fluorescence
